# Data taken from PMC3166295 (PLoS ONE, 2011).
# Peptide text beside a SMILES is read from it.
# How the values were obtained:
# [1] = test system: 8H5 binding to H5N1 virus Shenzhen/406H/2006; design: species or system H5N1 avian influenza virus
# [2] = test system: 8H5 binding to H5N1 virus Chicken/HongKong/YU22/2002; design: species or system H5N1 avian influenza virus
# [3] = test system: chicken serum antibody against H5N1 avian influenza virus; type: binding
# 8H5 mAb [4] = type: binding, murine
# 8H5 mAb [5] = type: binding, murine; details: read-out: Kd (dissociation constant for 8H5)
Structure (SMILES),Blocking Dose SZ/406H: amount of peptide that blocks binding of 8H5 to the virus by 50% [1] [µg],Blocking Dose Yu22: amount of peptide that blocks binding of 8H5 to the virus by 50% [2] [µg],reactivity of the ELISA produced with V-1b fused to HBcAg with chicken serum samples [3],8H5 titer (Tod1.5): phage dilution yielding an OD value of 1.5 (8H5 mAb [4]),Kd (8H5 mAb [5]) [nM]
CC[C@H](C)[C@H](NC(=O)[C@@H](NC(=O)[C@H](CC(C)C)NC(=O)[C@@H]1CCCN1C(=O)[C@@H](NC(=O)[C@@H](N)CC(=O)O)[C@@H](C)O)[C@@H](C)O)C(=O)N[C@@H](C)C(=O)NCC(=O)N[C@@H](CC(C)C)C(=O)N[C@@H](CCCCN)C(=O)N[C@@H](CC(C)C)C(=O)N[C@H](C(=O)O)C(C)C [II-1c] (H-DTPLTIAGLKLV-OH; N-terminus and C-terminus assumed),2.38,8.90,–,–,–
CC(C)C[C@H](NC(=O)[C@H](C)NC(=O)[C@H](CCC(N)=O)NC(=O)[C@H](CCCCN)NC(=O)[C@@H](NC(=O)[C@H](CC(C)C)NC(=O)[C@H](CCC(=O)O)NC(=O)[C@@H](NC(=O)[C@@H](N)CC(=O)O)[C@@H](C)O)[C@@H](C)O)C(=O)N[C@@H](CCCNC(=N)N)C(=O)N[C@@H](CC(C)C)C(=O)N[C@H](C(=O)O)C(C)C [III-2a] (H-DTELTKQALRLV-OH; N-terminus and C-terminus assumed),6.10,15.19,–,–,–
CC[C@H](C)[C@H](NC(=O)[C@@H](NC(=O)[C@H](CC(C)C)NC(=O)[C@H](CCC(=O)O)NC(=O)[C@@H](NC(=O)[C@@H](N)CCC(=O)O)[C@@H](C)O)[C@@H](C)O)C(=O)N[C@@H](C)C(=O)N[C@@H](C)C(=O)N[C@@H](CC(C)C)C(=O)N[C@@H](CCCCN)C(=O)N[C@@H](Cc1ccc(O)cc1)C(=O)N[C@H](C(=O)O)C(C)C [IV-1b] (H-ETELTIAALKYV-OH; N-terminus and C-terminus assumed),>50,>50,–,–,–
CC[C@H](C)[C@H](NC(=O)[C@@H](NC(=O)[C@H](CC(C)C)NC(=O)[C@@H]1CCCN1C(=O)[C@@H](NC(=O)[C@@H](N)CCC(=O)O)[C@@H](C)O)[C@@H](C)O)C(=O)N[C@@H](C)C(=O)NCC(=O)N[C@@H](CC(C)C)C(=O)N[C@@H](CCCCN)C(=O)N[C@@H](CC(C)C)C(=O)N[C@@H](CCCCN)C(=O)O [V-1b] (H-ETPLTIAGLKLK-OH; N-terminus and C-terminus assumed),2.31,5.70,only the H5N1 avian influenza reactive samples were also 8H5 reactive,–,–
CC(C)C[C@H](NC(=O)[C@H](C)NC(=O)[C@H](C)NC(=O)[C@@H](NC(=O)[C@@H](NC(=O)[C@H](CC(C)C)NC(=O)[C@@H]1CCCN1C(=O)[C@@H](NC(=O)[C@@H](N)CC(=O)O)[C@@H](C)O)[C@@H](C)O)[C@@H](C)O)C(=O)N[C@@H](CCCNC(=N)N)C(=O)N[C@@H](CC(C)C)C(=O)N[C@H](C(=O)O)C(C)C [p125] (H-DTPLTTAALRLV-OH; N-terminus and C-terminus assumed),11.16,18.34,–,2.96,824
